Experimental data taken from patent US8975241B2, “Composition for treating and preventing obesity including high water-soluble 2-hydroxypropyl-betacyclodextrin as effective component” (Song Ho Biomed Co., Ltd., priority 2009, dated 2015).

How the values were obtained:
Type in all cases: in vivo
[1] = system: mouse model with obesity caused by a high fat diet; assay: Amount of feed intake by autonomically drinking in mouse model with obesity caused by high fat diet; conditions: for Amount of Feed Intake: per group
Protocol: Male C57BL/6J mice (Five age of the week, KRIBB, Korea) were accommodated for 1 week, and then were induced with obesity by giving a high fat diet (60% fat kcal, Research Diets) for 15 days. The weights of the animals that were induced with obesity were equally divided into 3 animals as one group. And then, the solvent-control group drank sterilized distilled water, autonomically. Hydroxypropyl-β-cyclodextrin (HPBCD) was dissolved in sterilized distilled water to be 10, 15, and 20% (W/V) concentrations for drinking autonomically. A change in body weight was daily measured to all of animals during the test; the fixed amount of feeds was provided at the day of measuring body weight, and then an amount of intake per a group (g/day) was calculated by measuring a residual amount of feeds at the next day.

[2] = system: mouse model with obesity caused by a high fat diet; assay: Weights of body fat and liver after autonomically drinking in mouse model with obesity caused by high fat diet
Protocol: The animals induced with obesity in the above <Example 1> drank autonomically HPBCD with 10, 15, and 20% (W/V) concentrations for 3 days and then their autopsies were conducted. The mice were killed by using CO2 gas; their abdomens were cut; their genital fats, intra-abdominal fats, and livers were isolated; then their weights were measured using a chemical balance; average weight of three animals was calculated.

high fat diet-mouse = assay: Change in body weight by oral administration in high fat diet-mouse
Protocol: Male C57BL/6J mice (Five age of the week, KRIBB, Korea) were accommodated for 1 week. And then, the weights of the animals were equally divided into 5 animals as one group. While a high fat diet (60% fat kcal) was provided, sterilized distilled water and HPBCDs with 10, 20, and 40% (W/V) were orally administered at three times (Morning, Afternoon, Evening) a day for 5 days in 0.2 ml per 20 g body weight of a mouse at the same time. A change in body weight was measured to all of the animals during the test at one time per day; the fixed amount of feeds was provided at the day of measuring body weight, and then an average amount of intake per an animal (g/mouse/day) was calculated by measuring a residual amount of feeds at the next day.
A body weight was measured by using the same conditions as the above <Example 3>, except that BCDs with 10 and 20% (W/V) concentrations were used instead of HPBCDs with 10, 20, and 40% (W/V) concentrations.
A change in body weight was measured during the test using α-CD instead of HPBCD in the same method as the above <Example 3>.

normal mouse (ICR) = assay: Oral maltose tolerance test; conditions: for Rate of Suppression (%): vs control group
Protocol: An oral maltose tolerance test system is to predict whether or not a sample has an effect on suppressing a sharp increase of blood sugar induced by intaking maltose after an oral-administration of the sample to a mouse.
A normal mouse [ICR, 6W, Coretech Inc., Korea] was accommodated for 1 week, and then approximately 18˜20 g female with 7 age of the week mouse was used. 6 mice were assigned for one experimental group and starved for 16 hours to use. HPBCD was dissolved in sterilized distilled water to be 20% (W/V) concentration, and then oral-administered in 0.2 mL per 20 g body weight of a mouse. And then, the maltose dissolved in physiological saline was oral-administered to mice in a liquid amount of 10 ml/kg to inject 2 g/kg after 15, 30, 60, and 90 minutes, respectively. The levels of blood sugars were measured just before administering maltose (0 hour), and at 15, 60, and 120 minutes after administering maltose. Blood for measuring blood sugar was collected from orbital venous of the mouse using a capillary tube. The blood sugar in the collected blood was measured using a measuring instrument, […] ALPHA (Boehringer mannheim Co.). The same amount of sterilized distilled water was administered for the control group.

[3] = system: mouse model with obesity caused by a high fat diet; assay: Change in body weight by autonomically drinking in mouse model with obesity caused by high fat diet
[4] = 10% (w/v) in drinking water, 1 Day
[5] = 10% (w/v) in drinking water, 2 Day
[6] = 10% (w/v) in drinking water, 3 Day
[7] = 10, 15, 20% (W/V) autonomically drinking
[8] = 15% (w/v) in drinking water, 2 Day
[9] = 20% (w/v) in drinking water, 1 Day
[10] = 20% (w/v) in drinking water, 2 Day
[11] = 20% (w/v) in drinking water, 3 Day
[12] = 10% (w/v) in drinking water for 3 days
[13] = 15% (w/v) in drinking water for 3 days
[14] = 20% (w/v) in drinking water for 3 days
[15] = 20% (W/V) oral (−)15 min. before maltose 2 g/kg
[16] = 20% (W/V) oral (−)30 min. before maltose 2 g/kg
[17] = 20% (W/V) oral (−)60 min. before maltose 2 g/kg
[18] = 20% (W/V) oral (−)90 min. before maltose 2 g/kg

2-hydroxypropyl-β-cyclodextrin [HPBCD] was tested. Which “Amount of Feed Intake” value [1, 4] did it give?
The value was 3.9 g/day.

And the “Amount of Feed Intake” value [1, 5]?
The value was 3.9 g/day.

What about the “Amount of Feed Intake” value [1, 6] of the same substance?
Its value is 2.7 g/day.

And the “appetite / dietary intake” value [1, 7]?
Its value is “effect on suppressing appetite”.

What about the “Amount of Feed Intake” value ([1]; 15% (w/v) in drinking water, 1 Day) of the same substance?
The value was 4.1 g/day.

And the “Amount of Feed Intake” value [1, 8]?
The value was 4.5 g/day.

What about the “Amount of Feed Intake” value ([1]; 15% (w/v) in drinking water, 3 Day) of the same substance?
Its value is 4.0 g/day.

What about the “Amount of Feed Intake” value [1, 9] of the same substance?
Its value is 4.2 g/day.

And the “Amount of Feed Intake” value [1, 10]?
Its value is 4.2 g/day.

And the “Amount of Feed Intake” value [1, 11]?
Its value is 2.6 g/day.

And the “Total Amount of Fat” value [2, 12]?
Its value is 1615.0 ± 212.3 mg.

What about the “Weight of Genital Fat” value [2, 12] of the same substance?
The value was 594.0 ± 95.0 mg.

What about the “Weight of Intra-abdominal Fat” value [2, 12] of the same substance?
The value was 158.8 ± 36.3 mg.

What about the “Weight of Liver” value [2, 12] of the same substance?
The value was 999.3 ± 150.2 mg.

What about the “Weight of Subcutaneous Fat” value [2, 12] of the same substance?
Its value is 862.2 ± 86.7 mg.

What about the “weight of liver vs control group” value [2, 7] of the same substance?
The value was “decreased depending on the concentrations”.

What about the “Total Amount of Fat” value [2, 13] of the same substance?
Its value is 1437.0 ± 282.0 mg.

What about the “Weight of Genital Fat” value [2, 13] of the same substance?
Its value is 524.8 ± 67.1 mg.

And the “Weight of Intra-abdominal Fat” value [2, 13]?
The value was 147.2 ± 29.2 mg.

What about the “Weight of Liver” value [2, 13] of the same substance?
The value was 820.5 ± 66.0 mg.

And the “Weight of Subcutaneous Fat” value [2, 13]?
The value was 765.1 ± 238.8 mg.

What about the “Total Amount of Fat” value [2, 14] of the same substance?
The value was 1035.6 ± 324.3 mg.

What about the “Weight of Genital Fat” value [2, 14] of the same substance?
The value was 448.4 ± 108.6 mg.

And the “Weight of Intra-abdominal Fat” value [2, 14]?
The value was 97.8 ± 44.9 mg.

What about the “Weight of Liver” value [2, 14] of the same substance?
The value was 808.7 ± 76.8 mg.

And the “Weight of Subcutaneous Fat” value [2, 14]?
The value was 489.4 ± 183.5 mg.

And the “Body weight as percent of initial body weight” value (“Body weight as percent” below) (high fat diet-mouse; 10% (w/v) oral three times a day, 0 Day)?
The value was 100.0 ± 0.0%.

What about the “Body weight as percent” value (high fat diet-mouse; 10% (w/v) oral three times a day, 1 Day) of the same substance?
Its value is 99.3 ± 0.9 %.

What about the “Body weight as percent” value (high fat diet-mouse; 10% (w/v) oral three times a day, 2 Day) of the same substance?
The value was 98.5 ± 1.3 %.

What about the “Body weight as percent” value (high fat diet-mouse; 10% (w/v) oral three times a day, 3 Day) of the same substance?
Its value is 98.4 ± 1.2 %.

What about the “Body weight as percent” value (high fat diet-mouse; 10% (w/v) oral three times a day, 4 Day) of the same substance?
Its value is 98.3 ± 1.2 %.

What about the “Body weight as percent” value (high fat diet-mouse; 10% (w/v) oral three times a day, 5 Day) of the same substance?
The value was 98.7 ± 2.0 %.

And the “body weight as compared with the control group” value (high fat diet-mouse; 10, 20, 40% (W/V) oral)?
Its value is “decreased depending on the concentrations”.

What about the “body weight as compared with the initial body weight” value (high fat diet-mouse; 10, 20, 40% (W/V) oral) of the same substance?
The value was “significantly decreased”.

What about the “Body weight as percent” value (high fat diet-mouse; 20% (w/v) oral three times a day, 0 Day) of the same substance?
The value was 100.0 ± 0.0%.

And the “Body weight as percent” value (high fat diet-mouse; 20% (w/v) oral three times a day, 1 Day)?
The value was 97.1 ± 1.0 %.

What about the “Body weight as percent” value (high fat diet-mouse; 20% (w/v) oral three times a day, 2 Day) of the same substance?
Its value is 95.6 ± 1.1 %.

And the “Body weight as percent” value (high fat diet-mouse; 20% (w/v) oral three times a day, 3 Day)?
The value was 95.8 ± 1.3 %.

What about the “Body weight as percent” value (high fat diet-mouse; 20% (w/v) oral three times a day, 4 Day) of the same substance?
The value was 96.6 ± 1.0 %.

What about the “Body weight as percent” value (high fat diet-mouse; 20% (w/v) oral three times a day, 5 Day) of the same substance?
Its value is 95.7 ± 1.5 %.

And the “Body weight as percent” value (high fat diet-mouse; 40% (w/v) oral three times a day, 0 Day)?
Its value is 100.0 ± 0.0%.

And the “Body weight as percent” value (high fat diet-mouse; 40% (w/v) oral three times a day, 1 Day)?
The value was 95.0 ± 2.2 %.

What about the “Body weight as percent” value (high fat diet-mouse; 40% (w/v) oral three times a day, 2 Day) of the same substance?
The value was 93.1 ± 3.4 %.

What about the “Body weight as percent” value (high fat diet-mouse; 40% (w/v) oral three times a day, 3 Day) of the same substance?
The value was 93.5 ± 3.4 %.

What about the “Body weight as percent” value (high fat diet-mouse; 40% (w/v) oral three times a day, 4 Day) of the same substance?
The value was 94.3 ± 2.9 %.

And the “Body weight as percent” value (high fat diet-mouse; 40% (w/v) oral three times a day, 5 Day)?
The value was 94.1 ± 1.9 %.

What about the “Increasing Amount of Blood Sugar (15 min.~0 hour)” value (“Increasing Amount of Blood Sugar” below) (normal mouse (ICR); [15]) of the same substance?
The value was 189.7 mg/dL.

And the “Level of Blood Sugar Before and After Administration of Maltose (mg/dl), 0 hour” value (“Level … 0 hour” below) (normal mouse (ICR); [15])?
Its value is 83.2 mg/dL.

And the “Level of Blood Sugar Before and After Administration of Maltose (mg/dl), 15 min.” value (from here on “Level … 15 min.”) (normal mouse (ICR); [15])?
Its value is 272.8 mg/dL.

What about the “Rate of Suppression (%)” value (normal mouse (ICR); [15]) of the same substance?
The value was 38.6%.

And the “Increasing Amount of Blood Sugar” value (normal mouse (ICR); [16])?
Its value is 164.8 mg/dL.

What about the “Level … 0 hour” value (normal mouse (ICR); [16]) of the same substance?
The value was 87.2 mg/dL.

What about the “Level … 15 min.” value (normal mouse (ICR); [16]) of the same substance?
Its value is 252.0 mg/dL.

And the “Rate of Suppression (%)” value (normal mouse (ICR); [16])?
Its value is 46.7%.

What about the “Increasing Amount of Blood Sugar” value (normal mouse (ICR); [17]) of the same substance?
Its value is 171.3 mg/dL.

And the “Level … 0 hour” value (normal mouse (ICR); [17])?
Its value is 86.2 mg/dL.

And the “Level … 15 min.” value (normal mouse (ICR); [17])?
Its value is 257.5 mg/dL.

What about the “Rate of Suppression (%)” value (normal mouse (ICR); [17]) of the same substance?
Its value is 44.6%.

And the “Increasing Amount of Blood Sugar” value (normal mouse (ICR); [18])?
Its value is 186.2 mg/dL.

And the “Level … 0 hour” value (normal mouse (ICR); [18])?
Its value is 77.7 mg/dL.

What about the “Level … 15 min.” value (normal mouse (ICR); [18]) of the same substance?
Its value is 264.2 mg/dL.

And the “Rate of Suppression (%)” value (normal mouse (ICR); [18])?
The value was 39.6%.

What about the “blood sugar caused by intaking maltose suppressed as compared with the control group” value (normal mouse (ICR); oral, all pre-treatment times) of the same substance?
The value was 38˜47%.

What about the “Change in body weight (%)” value ([3]; 10% (w/v) in drinking water, 0 Day) of the same substance?
The value was 100.0 ± 0.0%.

What about the “Change in body weight (%)” value [3, 4] of the same substance?
Its value is 98.1 ± 0.2%.

What about the “Change in body weight (%)” value [3, 5] of the same substance?
The value was 97.6 ± 0.8 %.

And the “Change in body weight (%)” value [3, 6]?
The value was 94.6 ± 0.7 %.

And the “body weight as compared with the distilled water-drinking control group” value [3, 7]?
The value was “decreased depending on the concentration”.

What about the “body weight as compared with the initial body weight” value [3, 7] of the same substance?
Its value is “significantly decreased”.

And the “Change in body weight (%)” value ([3]; 15% (w/v) in drinking water, 0 Day)?
Its value is 100.0 ± 0.0%.

What about the “Change in body weight (%)” value [3, 8] of the same substance?
Its value is 94.0 ± 1.3 %.

What about the “Change in body weight (%)” value ([3]; 20% (w/v) in drinking water, 0 Day) of the same substance?
Its value is 100.0 ± 0.0%.

What about the “Change in body weight (%)” value [3, 9] of the same substance?
Its value is 100.0 ± 0.0%.

And the “Change in body weight (%)” value [3, 10]?
The value was 89.1 ± 6.9 %.

What about the “Change in body weight (%)” value [3, 11] of the same substance?
Its value is 85.4 ± 8.1 %.
